Our source for the IC50, EC50 and CC50 values is ChEMBL document CHEMBL3817790 (Medchemcomm, 2016).

The term IC50 denotes the concentration at which inhibition is half-maximal. Broadly, the EC50 is the midpoint of the concentration-response curve. A word on the CC50: it is the concentration giving 50% cytotoxicity.

The test system of series [1] is Trypanosoma cruzi. In words: Antitrypanosomal activity against epimastigote stage of Trypanosoma cruzi Y assessed as reduction in parasitic count after 96 hrs by Neubauer hemocytometry. In kind it is functional, organism-based.
In series [2] the test system is Trypanosoma cruzi. Kind of series: Antitrypanosomal activity against trypomastigote stage of Trypanosoma cruzi Y assessed as reduction in parasitic viability after 24 hrs by Pizzi-Brener method. The format is functional, organism-based.
A short description of series [3]: Cytotoxicity against African green monkey Vero cells after 72 hrs by MTT assay. The format is cell-based. The settings on record: chlorocebus sabaeus.
Another series concerns Leishmania amazonensis. Kind of series: Antileishmanial activity against promastigote stage of Leishmania amazonensis MHOM/BR/75/Josefa assessed as reduction in parasitic count after 72 hrs by Neubauer hemocytometry. The format is functional, organism-based.
The next series relates to Leishmania donovani. Kind of series: Antileishmanial activity against promastigote stage of Leishmania donovani after 2 hrs by [3H]thymidine incorporation assay. The format is functional, organism-based. (Incorporation of labelled thymidine or its analogues reports DNA synthesis.)

The structures appear in SMILES notation.

Consider `O=C(Cn1ccnc1[N+](=O)[O-])NCc1ccccc1` [BENZNIDAZOLE], for which the IC50 in the series on Trypanosoma cruzi [1] was 6.5 µM. In the series on Trypanosoma cruzi [2], the EC50 amounted to 34.5 µM.
For `CC/C(=C\c1ccc(Cl)cc1)C(=O)/C=C/c1cccc(OC)c1OC`, the IC50 turned out to be 5.5 µM in the series on Trypanosoma cruzi [1] and 2 µM in the series with Leishmania amazonensis. Besides, half-maximal cytotoxicity in series [3] (CC50 at 72 h) was put at 21.8 µM. Moreover, the EC50 with Trypanosoma cruzi [2] worked out at 19.1 µM.
The corresponding values for `COc1ccc(/C=C(\C)C(=O)/C=C/c2ccccc2F)cc1` are 15.2 µM, 32.2 µM, 81.2 µM and 67.6 µM.
The corresponding values for `CC/C(=C\c1ccc(Cl)cc1)C(=O)/C=C/c1ccc2c(c1)OCO2` are 2.8 µM, 2.9 µM, 27.1 µM and 7.6 µM.
The corresponding values for `CC/C(=C\c1ccc(Cl)cc1)C(=O)/C=C/c1ccccc1Br` are 1.8 µM, 1.3 µM, 24.4 µM and 20 µM.
In the case of `CC/C(=C\c1ccc(Cl)cc1)C(=O)/C=C/c1ccc([N+](=O)[O-])cc1`, the IC50 with Trypanosoma cruzi [1] turned out to be 2.5 µM; in the series on Leishmania amazonensis, 0.5 µM. This compound also showed a CC50 at 72 h in series [3] of 36 µM. Further, the EC50 with Trypanosoma cruzi [2] is 17.9 µM.
The corresponding values for `COc1ccc(/C=C(\C)C(=O)/C=C/c2ccccc2Cl)cc1` are 17.8 µM, 19.5 µM, 74.3 µM and 21.8 µM.
The corresponding values for `CC/C(=C\c1ccc(Cl)cc1)C(=O)/C=C/c1ccc(Cl)cc1` are 10.2 µM, 2.4 µM, 28.3 µM and 25.6 µM.
The corresponding values for `COc1ccc(/C=C(\C)C(=O)/C=C/c2ccc(/C=C/C(=O)/C(C)=C/c3ccc(OC)cc3)cc2)cc1` are more than 100 µM, 76.3 µM, 460 µM and more than 100 µM.
On to `COc1ccc(/C=C(\C)C(=O)/C=C/c2ccc(Br)cc2)cc1`, for which the IC50 turned out to be 20 µM in the series with Trypanosoma cruzi [1] and 17.3 µM in the series on Leishmania amazonensis. The same compound gave a half-maximal cytotoxic concentration (CC50) at 72 h in series [3] of 31.2 µM. The EC50 in the series on Trypanosoma cruzi [2] was 21.1 µM.
The corresponding values for `CC/C(=C\c1ccc(Cl)cc1)C(C)=O` are more than 100 µM, 58 µM, 136 µM and more than 100 µM.
The corresponding values for `COc1ccc(/C=C(\C)C(=O)/C=C/c2cc(OC)c(OC)c(OC)c2)cc1` are 6.1 µM, 3.7 µM, 21.4 µM and 69.2 µM.
The corresponding values for `CC/C(=C\c1ccc(Cl)cc1)C(=O)/C=C/c1ccc(Br)cc1` are 5.4 µM, 1.4 µM, 29.4 µM and 19.5 µM.
Consider `COc1ccc(/C=C(\C)C(=O)/C=C/c2cccc(Br)c2)cc1`, for which the IC50 in the series with Trypanosoma cruzi [1] and in the series on Leishmania amazonensis was 17.2 µM in each case. In addition, in series [3], the CC50 at 72 h stood at 152 µM. Also, in the series with Trypanosoma cruzi [2], the EC50 was found to be 20.3 µM.
Regarding `COc1ccc(/C=C(\C)C(C)=O)cc1`, the IC50 in the series on Trypanosoma cruzi [1] and in the series with Leishmania amazonensis was more than 100 µM each time. For the same compound, the midpoint of cytotoxicity in series [3], the CC50 at 72 h, lay at 240 µM. Moreover, the EC50 in the series on Trypanosoma cruzi [2] is more than 100 µM.
As for `COc1ccc(/C=C(\C)C(=O)/C=C/c2ccccc2Br)cc1`, the IC50 in the series with Trypanosoma cruzi [1] and in the series on Leishmania amazonensis was 21.7 µM throughout. The CC50 at 72 h in series [3] came out at 71 µM. Besides, in the series on Trypanosoma cruzi [2], the EC50 was 25 µM.
As for `COc1ccc(/C=C(\C)C(=O)/C=C/c2ccc(F)cc2)cc1`, the half-maximal inhibitory concentration (IC50) in the series on Trypanosoma cruzi [1] was 15.1 µM; in the series on Leishmania amazonensis it was 19.3 µM. This compound also yielded a CC50 at 72 h in series [3] of 68.1 µM. Further, the 50% effective concentration (EC50) with Trypanosoma cruzi [2] worked out at 19.7 µM.
The corresponding values for `COc1ccc(/C=C(\C)C(=O)/C=C/c2ccc(Cl)cc2)cc1` are 18.9 µM, 13.8 µM, 87 µM and 23 µM.
The corresponding values for `COc1ccc(/C=C(\C)C(=O)/C=C/c2c(Cl)cccc2Cl)cc1` are 19.6 µM, 8.2 µM, 65.7 µM and 27.9 µM.
Consider `COc1cc(/C=C/C(=O)c2ccc(O)c(O)c2)c(OC)c(OC)c1O`, for which, in the series with Leishmania donovani, the IC50 turned out to be 3.7 µM.
For the compound `COc1ccc(/C=C(\C)C(=O)/C=C/c2cccc(Cl)c2Cl)cc1`, the half-maximal inhibitory concentration (IC50) was found to be 16.8 µM with Trypanosoma cruzi [1] and 13.8 µM in the series on Leishmania amazonensis. Further, the CC50 at 72 h in series [3] worked out at 119 µM. Besides, the EC50 in the series on Trypanosoma cruzi [2] was found to be 14.8 µM.
The corresponding values for `CC/C(=C\c1ccc(Cl)cc1)C(=O)/C=C/c1ccc(C=O)cc1` are 65.2 µM, 17.4 µM, 46.9 µM and 74.2 µM.
The corresponding values for `COc1ccc(/C=C(\C)C(=O)/C=C/c2ccc(OC)c(OC)c2)cc1` are 9.7 µM, 9.8 µM, 74.2 µM and 66.7 µM.
